In article PMC6327980 (Journal of Enzyme Inhibition and Medicinal Chemistry, 2018):

Each molecule was assayed against T1, BpsCAβ (Burkholderia pseudomallei, UniProt Q63Y17) (assay: not given). Details: read-out: BpsCAβ.
T1 construct: gene BPSL0372
Assay type: biochemical

T1 sequence (Q63Y17 1-256): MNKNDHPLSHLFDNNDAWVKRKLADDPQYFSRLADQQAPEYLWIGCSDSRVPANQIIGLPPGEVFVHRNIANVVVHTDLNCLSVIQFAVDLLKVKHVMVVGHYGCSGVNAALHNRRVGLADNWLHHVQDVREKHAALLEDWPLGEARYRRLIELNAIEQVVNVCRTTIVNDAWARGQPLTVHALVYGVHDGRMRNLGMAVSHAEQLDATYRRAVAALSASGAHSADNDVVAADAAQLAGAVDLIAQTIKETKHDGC

Compound | Ki
NS(=O)(=O)c1ccc(-c2ncc(C[Te]c3ccccc3)[se]2)cc1 [9a] | 0.92 µM
Cc1ccc([Te]Cc2cnc(-c3ccc(S(N)(=O)=O)cc3)[se]2)cc1 [9b] | 0.32 µM

The molecules below were run against T2, VchCAα (Vibrio cholerae, UniProt Q9KMP6) (assay: biochemical). Details: not given.
T2 construct: gene VC_A0274
T2 sequence (Q9KMP6 21-239 limits assumed): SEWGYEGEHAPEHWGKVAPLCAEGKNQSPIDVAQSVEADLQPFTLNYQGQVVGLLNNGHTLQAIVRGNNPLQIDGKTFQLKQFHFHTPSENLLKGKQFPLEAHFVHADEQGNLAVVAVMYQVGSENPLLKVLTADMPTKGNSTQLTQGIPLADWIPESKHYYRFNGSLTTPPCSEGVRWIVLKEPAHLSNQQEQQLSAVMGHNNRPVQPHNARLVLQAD

Compound | Ki
NS(=O)(=O)c1ccc(-c2ncc(C[Te]c3ccccc3)[se]2)cc1 [9a] | 0.94 µM
Cc1ccc([Te]Cc2cnc(-c3ccc(S(N)(=O)=O)cc3)[se]2)cc1 [9b] | 0.47 µM
COc1ccc([Se]Cc2cnc(-c3ccc(S(N)(=O)=O)cc3)[se]2)cc1 [10c] | 0.92 µM
NS(=O)(=O)c1ccc(-c2ncc(C[Se]c3ccccc3)[se]2)cc1 [10a] | 0.87 µM
N=C(N)SCc1cnc(-c2ccc(S(N)(=O)=O)cc2)[se]1 [compound 11, 11] | 0.44 µM
COc1ccc([Te]Cc2cnc(-c3ccc(S(N)(=O)=O)cc3)[se]2)cc1 [9c] | 0.77 µM
Cc1ccc([Se]Cc2cnc(-c3ccc(S(N)(=O)=O)cc3)[se]2)cc1 [10b] | 0.46 µM

What follows are molecules tested against T3, BpsCAγ (assay: not given). Details: read-out: BpsCAγ.
T3 construct: gene BpsCAgamma
Assay type: biochemical, Burkholderia pseudomallei

Compound | Ki
N=C(N)SCc1cnc(-c2ccc(S(N)(=O)=O)cc2)[se]1 [compound 11, 11] | 6.55 µM

Same assay, conditions: read-out: VchCAγ

Compound | Ki
NS(=O)(=O)c1ccc(-c2ncc(C[Te]c3ccccc3)[se]2)cc1 [9a] | 8.9 µM
Cc1ccc([Te]Cc2cnc(-c3ccc(S(N)(=O)=O)cc3)[se]2)cc1 [9b] | 7.6 µM

What follows are molecules tested against T4, VchCAβ (Vibrio cholerae, UniProt Q9KUD6) (assay: biochemical). Details: not given.
T4 construct: gene VC_0586
T4 sequence (Q9KUD6 1-222): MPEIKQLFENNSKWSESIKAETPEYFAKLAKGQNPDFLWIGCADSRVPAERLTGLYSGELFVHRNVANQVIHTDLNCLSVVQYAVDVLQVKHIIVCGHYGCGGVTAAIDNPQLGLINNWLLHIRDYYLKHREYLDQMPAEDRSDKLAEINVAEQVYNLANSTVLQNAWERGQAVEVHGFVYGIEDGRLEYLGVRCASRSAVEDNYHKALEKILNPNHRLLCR

Compound | Ki
NS(=O)(=O)c1ccc(-c2ncc(C[Te]c3ccccc3)[se]2)cc1 [9a] | 7.7 µM
Cc1ccc([Te]Cc2cnc(-c3ccc(S(N)(=O)=O)cc3)[se]2)cc1 [9b] | 7.72 µM
COc1ccc([Se]Cc2cnc(-c3ccc(S(N)(=O)=O)cc3)[se]2)cc1 [10c] | 6.79 µM
NS(=O)(=O)c1ccc(-c2ncc(C[Se]c3ccccc3)[se]2)cc1 [10a] | 8.84 µM
N=C(N)SCc1cnc(-c2ccc(S(N)(=O)=O)cc2)[se]1 [compound 11, 11] | 9.12 µM
COc1ccc([Te]Cc2cnc(-c3ccc(S(N)(=O)=O)cc3)[se]2)cc1 [9c] | 9.08 µM
Cc1ccc([Se]Cc2cnc(-c3ccc(S(N)(=O)=O)cc3)[se]2)cc1 [10b] | 8.59 µM
